{
  "source": "ChEMBL document CHEMBL4311992",
  "about": "“Discovery of 3-(((9H-purin-6-yl)amino)methyl)-4,6-dimethylpyridin-2(1H)-one derivatives as novel tubulin polymerization inhibitors for treatment of cancer” (Eur J Med Chem, 2019)",
  "key": {"[1]": {"target": "Protein kinase C zeta type (Homo sapiens) (UniProt Q05513)", "assay": "Inhibition of recombinant human PKCzeta (2 to end residues) assessed as residual activity at 10 uM using ERMRPRKRQGSVRRRV as substrate measured after 40 mins in presence of [gamma33P]ATP by scintillation counting method"}, "[2]": {"target": "Ribosomal protein S6 kinase alpha-6 (Homo sapiens) (UniProt Q9UK32)", "assay": "Inhibition of recombinant full-length human Rsk4 assessed as residual activity at 10 uM using LRRASLG as substrate measured after 40 mins in presence of [gamma33P]ATP by scintillation counting method"}, "[3]": {"target": "Tyrosine-protein kinase JAK3 (Homo sapiens) (UniProt P52333)", "sequence (P52333 whole entry)": "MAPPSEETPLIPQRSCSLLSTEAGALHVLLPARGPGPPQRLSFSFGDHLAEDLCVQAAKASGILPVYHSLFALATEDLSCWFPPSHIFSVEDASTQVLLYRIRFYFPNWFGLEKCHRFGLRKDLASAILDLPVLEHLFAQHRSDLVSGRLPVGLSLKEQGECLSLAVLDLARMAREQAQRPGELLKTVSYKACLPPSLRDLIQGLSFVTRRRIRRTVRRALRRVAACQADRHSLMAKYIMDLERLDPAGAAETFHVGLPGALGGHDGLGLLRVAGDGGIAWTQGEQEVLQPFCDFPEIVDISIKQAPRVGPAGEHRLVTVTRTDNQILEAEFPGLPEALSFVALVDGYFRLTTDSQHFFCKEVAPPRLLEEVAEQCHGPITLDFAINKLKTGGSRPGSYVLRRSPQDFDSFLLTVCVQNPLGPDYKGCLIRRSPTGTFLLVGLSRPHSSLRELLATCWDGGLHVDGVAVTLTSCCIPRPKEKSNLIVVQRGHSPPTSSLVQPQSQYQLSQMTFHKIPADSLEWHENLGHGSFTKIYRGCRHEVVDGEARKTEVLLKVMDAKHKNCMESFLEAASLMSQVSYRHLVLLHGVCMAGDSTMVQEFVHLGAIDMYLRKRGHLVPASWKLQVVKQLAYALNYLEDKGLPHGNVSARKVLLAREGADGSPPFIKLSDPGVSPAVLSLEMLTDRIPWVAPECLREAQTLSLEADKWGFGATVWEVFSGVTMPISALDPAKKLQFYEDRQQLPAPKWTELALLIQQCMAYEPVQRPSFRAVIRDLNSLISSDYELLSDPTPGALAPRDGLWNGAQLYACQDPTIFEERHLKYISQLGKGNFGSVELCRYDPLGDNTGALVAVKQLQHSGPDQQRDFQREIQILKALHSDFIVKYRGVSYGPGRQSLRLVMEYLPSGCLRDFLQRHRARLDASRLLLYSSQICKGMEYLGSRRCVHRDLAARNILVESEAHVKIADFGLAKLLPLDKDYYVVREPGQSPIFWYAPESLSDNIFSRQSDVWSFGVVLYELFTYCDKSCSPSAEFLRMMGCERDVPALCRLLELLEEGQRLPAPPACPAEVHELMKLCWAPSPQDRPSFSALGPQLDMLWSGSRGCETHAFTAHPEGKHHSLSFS", "assay": "Inhibition of recombinant human JAK3 (781 to end residues) assessed as residual activity at 10 uM using GGEEEEYFELVKKKK as substrate measured after 40 mins in presence of [gamma33P]ATP by scintillation counting method"}, "[4]": {"assay": "Toxicity in nude BALB/c mouse assessed as change in platelet level at 40 to 80 mg/kg, po once daily for 4 weeks measured post-last dose", "assay_type": "organism-based", "conditions": "in vivo, 672 h"}, "[5]": {"target": "CDK9/cyclin T1 (Homo sapiens) (UniProt O60563+P50750)", "assay": "Inhibition of recombinant full length human CDK9/cyclinT1 assessed as residual activity at 10 uM using KTFCGTPEYLAPEVRREPRILSEEEQEMFRDFDYIADWC as substrate measured after 40 mins in presence of [gamma33P]ATP by scintillation counting method", "assay_type": "protein-complex assay"}, "[6]": {"test_system": "Angiopoietin-1 receptor (Homo sapiens), Q02763 [Q939H,Q940H,R849W]", "assay": "Inhibition of human Tie2 Q939H/Q940H/R849W mutant (771 to end residues) using EFPIYDFLPAKKK as substrate measured after 40 mins in presence of [gamma33P]ATP by scintillation counting method", "design": "scale not given: the % may be the effect or the level left"}, "HCT-116": {"test_system": "HCT-116", "assay": "Induction of apoptosis in human HCT116 cells assessed as late apoptotic cells at 25 nM measured after 48 hrs by Annexin V-FITC/propidium iodide staining-based flow cytometry (reference value: 3.87%)", "assay_type": "functional"}, "[7]": {"target": "PI3K p110 delta/p85 alpha (Mus musculus) (UniProt P26450+O35904)", "assay": "Inhibition of recombinant full-length mouse PI3K p110delta/p85alpha assessed as residual activity at 10 uM using phosphatidylinositol-4, 5-bisphosphate as substrate measured after 40 mins by HTRF assay", "assay_type": "protein-complex assay"}, "[8]": {"test_system": "Tyrosine-protein kinase ABL1 (Homo sapiens), P00519 [Q252H]", "assay": "Inhibition of recombinant human ABL Q252H mutant (27 to end residues) assessed as residual activity at 10 uM using EAIYAAPFAKKK as substrate measured after 40 mins in presence of [gamma33P]ATP by scintillation counting method"}, "[9]": {"assay": "Toxicity in nude BALB/c mouse assessed as change in glucose level at 40 to 80 mg/kg, po once daily for 4 weeks measured post-last dose", "assay_type": "organism-based", "conditions": "in vivo, 672 h"}, "[10]": {"target": "Insulin receptor-related protein (Homo sapiens) (UniProt P14616)", "assay": "Inhibition of recombinant human IRR (943 to 1266 residues) assessed as residual activity at 10 uM using myelin basic protein as substrate measured after 40 mins in presence of [gamma33P]ATP by scintillation counting method"}, "[11]": {"test_system": "Tyrosine-protein kinase ABL1 (Homo sapiens), P00519 [M351T]", "assay": "Inhibition of recombinant human ABL M351T mutant (27 to end residues) assessed as residual activity at 10 uM using EAIYAAPFAKKK as substrate measured after 40 mins in presence of [gamma33P]ATP by scintillation counting method"}, "[12]": {"test_system": "Macrophage colony-stimulating factor 1 receptor (Homo sapiens), P07333 [Y969C]", "assay": "Inhibition of recombinant human FMS Y969C mutant (538 to end residues) assessed as residual activity at 10 uM using EEEEYEEEEEEYYIIEEEEEEYEEEEEEYYEEEEEEKKKK as substrate measured after 40 mins in presence of [gamma33P]ATP by scintillation counting method"}, "Homo sapiens [13]": {"species_on_record": "Homo sapiens", "assay": "Inhibition of recombinant human Flt4 V1128L/H1146R mutant (800 to end residues) assessed as residual activity at 10 uM using GGEEEEYFELVKKKK as substrate measured after 40 mins in presence of [gamma33P]ATP by scintillation counting method"}, "[14]": {"target": "Mitogen-activated protein kinase 1 (Homo sapiens) (UniProt P28482)", "sequence (P28482 whole entry)": "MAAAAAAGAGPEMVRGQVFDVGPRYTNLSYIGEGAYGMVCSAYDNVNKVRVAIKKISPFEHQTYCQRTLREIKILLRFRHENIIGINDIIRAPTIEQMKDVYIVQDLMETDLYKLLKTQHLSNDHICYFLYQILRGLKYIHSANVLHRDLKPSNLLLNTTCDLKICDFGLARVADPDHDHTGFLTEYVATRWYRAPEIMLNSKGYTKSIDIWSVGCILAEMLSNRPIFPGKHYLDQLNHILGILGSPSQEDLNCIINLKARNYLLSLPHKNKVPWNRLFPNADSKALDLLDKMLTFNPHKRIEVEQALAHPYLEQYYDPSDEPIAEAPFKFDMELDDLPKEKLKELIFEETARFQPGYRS", "assay": "Inhibition of recombinant full-length human MAPK1 assessed as residual activity at 10 uM using myelin basic protein as substrate measured after 40 mins in presence of [gamma33P]ATP by scintillation counting method"}, "[15]": {"target": "cAMP-dependent protein kinase catalytic subunit alpha (Homo sapiens) (UniProt P17612)", "assay": "Inhibition of recombinant full-length human PKA assessed as residual activity at 10 uM using Kemptide as substrate measured after 40 mins in presence of [gamma33P]ATP by scintillation counting method"}, "[16]": {"test_system": "Fibroblast growth factor receptor 2 (Homo sapiens), P21802 [N549H]", "sequence (P21802 whole entry N549H, the tested form may be a part)": "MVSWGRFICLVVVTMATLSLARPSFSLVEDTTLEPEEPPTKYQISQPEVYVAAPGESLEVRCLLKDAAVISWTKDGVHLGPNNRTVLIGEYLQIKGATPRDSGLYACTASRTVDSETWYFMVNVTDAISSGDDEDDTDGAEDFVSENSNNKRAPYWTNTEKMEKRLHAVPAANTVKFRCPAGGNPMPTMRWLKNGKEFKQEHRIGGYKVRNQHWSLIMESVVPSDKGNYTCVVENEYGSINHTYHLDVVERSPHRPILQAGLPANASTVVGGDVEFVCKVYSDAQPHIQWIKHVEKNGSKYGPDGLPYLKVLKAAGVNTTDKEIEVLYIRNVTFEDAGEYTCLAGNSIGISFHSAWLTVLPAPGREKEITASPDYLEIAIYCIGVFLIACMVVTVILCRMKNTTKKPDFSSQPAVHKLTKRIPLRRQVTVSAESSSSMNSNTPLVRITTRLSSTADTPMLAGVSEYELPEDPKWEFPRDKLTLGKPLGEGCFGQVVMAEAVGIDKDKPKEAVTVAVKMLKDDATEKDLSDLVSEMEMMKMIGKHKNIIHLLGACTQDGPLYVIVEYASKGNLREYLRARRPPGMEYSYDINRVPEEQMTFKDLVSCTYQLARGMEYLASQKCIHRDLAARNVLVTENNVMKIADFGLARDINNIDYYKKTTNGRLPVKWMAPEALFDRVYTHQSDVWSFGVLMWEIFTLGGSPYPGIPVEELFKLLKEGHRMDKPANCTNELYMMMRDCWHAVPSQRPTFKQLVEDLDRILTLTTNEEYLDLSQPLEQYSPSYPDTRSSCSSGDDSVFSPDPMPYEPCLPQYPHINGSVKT", "assay": "Inhibition of recombinant human FGFR2 N549H mutant (456 to 770 residues) assessed as residual activity at 10 uM using GGEEEEYFELVKKKK as substrate measured after 40 mins in presence of [gamma33P]ATP by scintillation counting method"}, "Homo sapiens [17]": {"species_on_record": "Homo sapiens", "assay": "Inhibition of recombinant full-length human PKBalpha S478G mutant assessed as residual activity at 10 uM using GRPRTSSFAEGKK as substrate measured after 40 mins in presence of [gamma33P]ATP by scintillation counting method"}, "[18]": {"target": "NT-3 growth factor receptor (Homo sapiens) (UniProt Q16288)", "sequence (Q16288 32-839 limits assumed)": "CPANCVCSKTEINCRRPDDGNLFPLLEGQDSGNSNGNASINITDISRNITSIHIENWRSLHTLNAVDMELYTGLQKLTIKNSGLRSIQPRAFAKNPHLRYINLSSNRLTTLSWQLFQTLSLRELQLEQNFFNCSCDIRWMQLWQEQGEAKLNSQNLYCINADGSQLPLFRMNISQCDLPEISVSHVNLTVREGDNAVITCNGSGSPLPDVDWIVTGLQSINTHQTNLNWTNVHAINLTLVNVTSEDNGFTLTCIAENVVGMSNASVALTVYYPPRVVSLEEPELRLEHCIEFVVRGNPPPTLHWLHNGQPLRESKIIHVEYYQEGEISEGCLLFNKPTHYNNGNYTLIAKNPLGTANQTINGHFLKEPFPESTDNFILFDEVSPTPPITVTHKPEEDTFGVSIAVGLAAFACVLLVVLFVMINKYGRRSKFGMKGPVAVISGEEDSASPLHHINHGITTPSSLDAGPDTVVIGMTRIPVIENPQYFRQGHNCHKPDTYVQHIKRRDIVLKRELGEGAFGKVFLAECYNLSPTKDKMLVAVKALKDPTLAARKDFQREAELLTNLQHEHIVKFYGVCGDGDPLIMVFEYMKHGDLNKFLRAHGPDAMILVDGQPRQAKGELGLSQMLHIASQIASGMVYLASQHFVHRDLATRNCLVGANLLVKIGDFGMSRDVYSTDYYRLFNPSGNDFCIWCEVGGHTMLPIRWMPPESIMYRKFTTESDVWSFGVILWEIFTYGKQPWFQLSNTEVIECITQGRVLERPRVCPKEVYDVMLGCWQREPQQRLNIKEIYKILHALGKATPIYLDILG", "assay": "Inhibition of human TrkC (510 to end residues) using GEEPLYWSFPAKKK as substrate measured after 40 mins in presence of [gamma33P]ATP by scintillation counting method", "design": "scale not given: the % may be the effect or the level left"}, "[19]": {"target": "Calcium/calmodulin-dependent protein kinase type II subunit beta (Homo sapiens) (UniProt Q13554)", "sequence (Q13554 whole entry, the tested form may be a part)": "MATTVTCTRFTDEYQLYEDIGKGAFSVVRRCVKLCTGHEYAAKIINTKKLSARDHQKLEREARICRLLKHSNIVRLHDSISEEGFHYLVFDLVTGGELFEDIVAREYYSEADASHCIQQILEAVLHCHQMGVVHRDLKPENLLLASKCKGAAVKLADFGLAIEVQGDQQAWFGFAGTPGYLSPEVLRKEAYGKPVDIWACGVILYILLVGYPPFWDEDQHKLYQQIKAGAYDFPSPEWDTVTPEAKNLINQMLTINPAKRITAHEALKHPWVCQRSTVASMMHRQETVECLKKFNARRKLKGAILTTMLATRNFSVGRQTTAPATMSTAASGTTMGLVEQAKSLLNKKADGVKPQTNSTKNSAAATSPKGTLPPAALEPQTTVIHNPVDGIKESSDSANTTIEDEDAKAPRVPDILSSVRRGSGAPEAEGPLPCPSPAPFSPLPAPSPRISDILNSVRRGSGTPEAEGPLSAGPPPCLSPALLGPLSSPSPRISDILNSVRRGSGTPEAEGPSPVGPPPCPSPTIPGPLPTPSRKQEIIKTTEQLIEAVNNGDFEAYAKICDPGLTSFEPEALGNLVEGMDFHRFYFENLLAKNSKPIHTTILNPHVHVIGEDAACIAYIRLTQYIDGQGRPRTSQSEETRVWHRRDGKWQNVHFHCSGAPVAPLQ", "assay": "Inhibition of recombinant full-length human CaMK2beta (1 to 315 residues) assessed as residual activity at 10 uM using calmodulin as substrate measured after 40 mins in presence of [gamma33P]ATP by scintillation counting method"}, "[20]": {"target": "Epidermal growth factor receptor (Homo sapiens) (UniProt P00533)", "sequence (P00533 whole entry)": "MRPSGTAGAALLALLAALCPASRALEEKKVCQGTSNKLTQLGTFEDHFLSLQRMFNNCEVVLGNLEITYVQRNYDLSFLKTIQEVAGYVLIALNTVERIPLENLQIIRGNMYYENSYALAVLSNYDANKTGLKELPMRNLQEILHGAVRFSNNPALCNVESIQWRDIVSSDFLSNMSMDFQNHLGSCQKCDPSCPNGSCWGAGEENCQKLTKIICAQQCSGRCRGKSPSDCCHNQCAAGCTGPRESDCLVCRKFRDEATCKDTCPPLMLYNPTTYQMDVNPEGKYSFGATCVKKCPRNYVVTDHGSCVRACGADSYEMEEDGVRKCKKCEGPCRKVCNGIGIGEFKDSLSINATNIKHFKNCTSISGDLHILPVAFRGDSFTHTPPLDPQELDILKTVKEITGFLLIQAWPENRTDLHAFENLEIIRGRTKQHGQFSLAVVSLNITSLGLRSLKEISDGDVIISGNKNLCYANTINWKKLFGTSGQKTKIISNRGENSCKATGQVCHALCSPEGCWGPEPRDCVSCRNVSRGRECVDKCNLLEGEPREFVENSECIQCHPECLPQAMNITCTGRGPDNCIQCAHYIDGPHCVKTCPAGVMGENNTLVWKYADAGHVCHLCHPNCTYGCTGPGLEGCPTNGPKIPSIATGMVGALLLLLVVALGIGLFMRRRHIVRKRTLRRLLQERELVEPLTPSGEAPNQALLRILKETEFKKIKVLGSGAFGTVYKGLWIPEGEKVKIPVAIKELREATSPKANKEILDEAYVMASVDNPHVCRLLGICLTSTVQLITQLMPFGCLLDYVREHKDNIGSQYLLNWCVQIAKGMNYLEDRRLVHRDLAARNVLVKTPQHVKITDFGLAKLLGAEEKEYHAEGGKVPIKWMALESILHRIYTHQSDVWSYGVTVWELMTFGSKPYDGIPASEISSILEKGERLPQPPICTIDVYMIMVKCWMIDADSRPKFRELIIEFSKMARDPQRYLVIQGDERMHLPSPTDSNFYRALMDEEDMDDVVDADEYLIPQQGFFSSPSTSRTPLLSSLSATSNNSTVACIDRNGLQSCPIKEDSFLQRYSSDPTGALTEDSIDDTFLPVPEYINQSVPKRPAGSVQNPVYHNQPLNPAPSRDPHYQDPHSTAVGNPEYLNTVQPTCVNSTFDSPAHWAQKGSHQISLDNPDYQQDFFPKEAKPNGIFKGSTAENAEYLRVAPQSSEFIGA", "assay": "Inhibition of recombinant human EGFR (696 to end residues) assessed as residual activity at 10 uM using poly(Glu, Tyr) 4:1 as substrate measured after 40 mins in presence of [gamma33P]ATP by scintillation counting method"}, "Homo sapiens [21]": {"species_on_record": "Homo sapiens", "assay": "Inhibition of recombinant full-length human PI3K p110delta/p85alpha N253S mutant assessed as residual activity at 10 uM using phosphatidylinositol-4, 5-bisphosphate as substrate measured after 40 mins by fluorescence assay"}, "SW-620": {"test_system": "SW-620", "assay": "Induction of apoptosis in human SW620 cells assessed as increase in cleaved caspase9 expression measured after 48 hrs by Western blot analysis", "assay_type": "functional, cell-based"}, "[22]": {"target": "Serine/threonine-protein kinase 38-like (Homo sapiens) (UniProt Q9Y2H1)", "assay": "Inhibition of recombinant human NDR2 (83 to end residues) assessed as residual activity at 10 uM using RSRSRSRSRSRSRSR as substrate measured after 40 mins in presence of [gamma33P]ATP by scintillation counting method"}},
  "data": [
    {"compound": "Cc1cc(C)c(CNc2nc(Cl)nc3c2ncn3C2CCCC2)c(=O)[nH]1", "values": [
      {"measurement": "Activity", "setting": "[1]", "value": 99.5, "unit": "%"},
      {"measurement": "Activity", "setting": "[2]", "value": 98.5, "unit": "%"},
      {"measurement": "Activity", "setting": "[3]", "value": 90, "unit": "%"},
      {"measurement": "Activity", "setting": "[4]", "value": "Non-Toxic"},
      {"measurement": "Activity", "setting": "[5]", "value": 106, "unit": "%"},
      {"measurement": "Activity", "setting": "[6]", "value": 102, "unit": "%"},
      {"measurement": "Activity", "setting": "HCT-116", "value": 17.1, "unit": "%"},
      {"measurement": "Activity", "setting": "[7]", "value": 100, "unit": "%"},
      {"measurement": "Activity", "setting": "[8]", "value": 106, "unit": "%"},
      {"measurement": "Activity", "setting": "[9]", "value": "Non-Toxic"},
      {"measurement": "Activity", "setting": "[10]", "value": 102, "unit": "%"},
      {"measurement": "Activity", "setting": "[11]", "value": 96.5, "unit": "%"},
      {"measurement": "Activity", "setting": "[12]", "value": 94.5, "unit": "%"},
      {"measurement": "Activity", "setting": "Homo sapiens [13]", "value": 104, "unit": "%"},
      {"measurement": "Activity", "setting": "[14]", "value": 97.5, "unit": "%"},
      {"measurement": "Activity", "setting": "[15]", "value": 91, "unit": "%"},
      {"measurement": "Activity", "setting": "[16]", "value": 88, "unit": "%"},
      {"measurement": "Activity", "setting": "Homo sapiens [17]", "value": 105, "unit": "%"},
      {"measurement": "Activity", "setting": "[18]", "value": 110, "unit": "%"},
      {"measurement": "Activity", "setting": "[19]", "value": 99.5, "unit": "%"},
      {"measurement": "Activity", "setting": "[20]", "value": 114, "unit": "%"},
      {"measurement": "Activity", "setting": "Homo sapiens [21]", "value": 99.5, "unit": "%"},
      {"measurement": "Activity", "setting": "SW-620", "value": "Dose-dependent effect"},
      {"measurement": "Activity", "setting": "[22]", "value": 108, "unit": "%"}
    ]}
  ]
}
